Results on one compound are retold here after patent US9167822B2, “Antifungal compositions” (DSM IP ASSETS B.V., priority 2012, dated 2015).

The structures appear in SMILES notation.

One assay deals with Botrytis cinerea. Put plainly: In vitro antifungal activity, 96-well microtiter plates. The assay is classed as cell-based. Particulars: 25° C., day 3, 1.25 ppm natamycin, 6.25 ppm isopyrazam or both. As for the experimental part:
Subsequently, 100 μl of a Botrytis cinerea suspension prepared in PCB medium was used to inoculated each well with 2.5×10^3 spores/ml. […] After incubation of the microtiter plates at 25° C., the in vitro antifungal activity (%) of the individual active ingredients was assessed by calculating the reduction in mould growth observed in the presence of the active ingredient in comparison to the mould growth observed in the absence of the active ingredient. The expected antifungal activity (E in %) of the active ingredient combination was calculated according to the Colby equation (Colby, 1967): […]

In a further assay the test system is Penicillium italicum. The description is as above. Format: cell-based. Particulars: 25° C., day 10, 0.63 ppm natamycin, 25 ppm isopyrazam or both. The protocol: Subsequently, 100 μl of a Botrytis cinerea suspension prepared in PCB medium was used to inoculated each well with 2.5×10^3 spores/ml.
After incubation of the microtiter plates at 25° C., the in vitro antifungal activity (%) of the individual active ingredients was assessed by calculating the reduction in mould growth observed in the presence of the active ingredient in comparison to the mould growth observed in the absence of the active ingredient. The expected antifungal activity (E in %) of the active ingredient combination was calculated according to the Colby equation (Colby, 1967): E=X+Y−[(X·Y)/100] wherein X and Y are the observed antifungal activities (in %) of the individual active ingredients X and Y, respectively. If the observed antifungal activity (O in %) of the combination exceeds the expected antifungal activity (E in %) of the combination and the resulting synergy factor O/E is thus >1.0, the combined application of the active ingredients leads to a synergistic antifungal effect.
Furthermore, Penicillium italicum was used for inoculation.

Consider `CC(C)C1C2CCC1c1c(NC(=O)c3cn(C)nc3C(F)F)cccc12` (centres unmarked) [Isopyrazam, isopyrazam], for which the “Observed antifungal activity O (%)” value stood at 0% in the assay with Botrytis cinerea and 50% in the assay on Penicillium italicum.
